IC50 and viability, T/C data for five molecules are collected here from PubChem BioAssay AID1918993 (Molecular Pharmacology Branch, DTP, NCI, 2023).

Structures are written as SMILES. “And” between values parts separate entries of the source, which are not always exact repeats. Equal entries are not always repeated.

What is called IC50 is the concentration needed to halve the response being measured. Usually viability, T/C stands for the ratio of treated to control.

This assay relates to 233499-124-R-J3-PDC complex spheroid growth. The assay can be described thus: Anticancer human tumor 233499-124-R-J3-PDC patient-derived colon adenocarcinoma cell line growth inhibition [AhR]. To be noted: for viability, T/C: stronger effect = lower value. An outline of the steps:
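Agents were dosed in half-log steps down from roughly clinical Cmax, or from 10 microM where Cmax was unknown, alone and with AhR antagonists. Read-out: percent test/control growth of tumor spheroids containing HUVEC and MSC stromal cells.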

Setting [1] is: curve of first compound, second compound 0.1 µM.
The mark [2] stands for this setting: curve of first compound, second compound 0.316 µM.
Where [3] appears, read: curve of first compound, second compound 1 µM.
Setting [4] is: curve of first compound, second compound 3.16 µM.
Where [5] appears, read: curve of first compound, second compound 10 µM.
The mark [6] stands for this setting: second compound 0.1 µM, first compound 0.000316 µM.
Setting [7] is: second compound 0.1 µM, first compound 0.001 µM.
Where [8] appears, read: second compound 0.1 µM, first compound 0.00316 µM.
Where [9] appears, read: second compound 0.1 µM, first compound 0.01 µM.
The mark [10] stands for this setting: second compound 0.1 µM, first compound 0.0316 µM.
Setting [11] is: second compound 0.1 µM, first compound 0.1 µM.
[12] abbreviates: second compound 0.316 µM, first compound 0.000316 µM.
Where [13] appears, read: second compound 0.316 µM, first compound 0.001 µM.
[14] abbreviates: second compound 0.316 µM, first compound 0.00316 µM.
The mark [15] stands for this setting: second compound 0.316 µM, first compound 0.01 µM.
Where [16] appears, read: second compound 0.316 µM, first compound 0.0316 µM.
Where [17] appears, read: second compound 0.316 µM, first compound 0.1 µM.
Setting [18] is: second compound 1 µM, first compound 0.000316 µM.
[19] abbreviates: second compound 1 µM, first compound 0.001 µM.
Where [20] appears, read: second compound 1 µM, first compound 0.00316 µM.
[21] abbreviates: second compound 1 µM, first compound 0.01 µM.
Setting [22] is: second compound 1 µM, first compound 0.0316 µM.
Setting [23] is: second compound 1 µM, first compound 0.1 µM.
[24] abbreviates: second compound 3.16 µM, first compound 0.000316 µM.
[25] abbreviates: second compound 3.16 µM, first compound 0.001 µM.
Setting [26] is: second compound 3.16 µM, first compound 0.00316 µM.
Setting [27] is: second compound 3.16 µM, first compound 0.01 µM.
Setting [28] is: second compound 3.16 µM, first compound 0.0316 µM.
[29] abbreviates: second compound 3.16 µM, first compound 0.1 µM.
[30] abbreviates: second compound 10 µM, first compound 0.000316 µM.
Setting [31] is: second compound 10 µM, first compound 0.001 µM.
Where [32] appears, read: second compound 10 µM, first compound 0.00316 µM.
Setting [33] is: second compound 10 µM, first compound 0.01 µM.
The mark [34] stands for this setting: second compound 10 µM, first compound 0.0316 µM.
Where [35] appears, read: second compound 10 µM, first compound 0.1 µM.
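Further: spheroids exposed to agents for seven days before reading.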

Take `O=C(C=Cn1cnc(-c2cc(C(F)(F)F)cc(C(F)(F)F)c2)n1)NNc1cnccn1` + Cc1cncc(-c2nc(NCCc3c[nH]c4ccccc34)c3ncn(C(C)C)c3n2)c1: the half-inhibitory concentration (IC50) under setting [1] was greater than 3000 nM; the 50% inhibitory concentration (IC50) under setting [2] is greater than 3000 nM; the IC50 under setting [3] was greater than 3000 nM; the IC50 under setting [4] was greater than 3000 nM; the concentration for half-maximal inhibition (IC50) under setting [5] is less than 9.49 nM. Further, the viability, T/C (second compound 0.1 µM, first compound 0.00949 µM) was 99.6%; the viability, T/C (second compound 0.1 µM, first compound 0.03 µM) was 108%; the viability, T/C (second compound 0.1 µM, first compound 0.0949 µM) was 102%; the viability, T/C (second compound 0.1 µM, first compound 0.3 µM) was 89.3%; the viability, T/C (second compound 0.1 µM, first compound 0.949 µM) was 100%; the viability, T/C (second compound 0.1 µM, first compound 3 µM) was 68.2%. Moreover, the viability, T/C is, setting by setting: (second compound 0.316 µM, first compound 0.00949 µM) 98.5%; (second compound 0.316 µM, first compound 0.03 µM) 94.9%; (second compound 0.316 µM, first compound 0.0949 µM) 95.7%; (second compound 0.316 µM, first compound 0.3 µM) 106%; (second compound 0.316 µM, first compound 0.949 µM) 53.5%; (second compound 0.316 µM, first compound 3 µM) 54%. In addition, the viability, T/C is 88.5% (second compound 1 µM, first compound 0.00949 µM); 80.9% (second compound 1 µM, first compound 0.03 µM); 99.1% (second compound 1 µM, first compound 0.0949 µM); 96.3% (second compound 1 µM, first compound 0.3 µM); 74% (second compound 1 µM, first compound 0.949 µM); 58.3% (second compound 1 µM, first compound 3 µM). The viability, T/C was 76.3% (second compound 3.16 µM, first compound 0.00949 µM); 81.6% (second compound 3.16 µM, first compound 0.03 µM); 93.2% (second compound 3.16 µM, first compound 0.0949 µM); 87% (second compound 3.16 µM, first compound 0.3 µM); 60.7% (second compound 3.16 µM, first compound 0.949 µM); 59.6% (second compound 3.16 µM, first compound 3 µM). The viability, T/C by setting is: (second compound 10 µM, first compound 0.00949 µM) 21.2%; (second compound 10 µM, first compound 0.03 µM) 35.3%; (second compound 10 µM, first compound 0.0949 µM) 30.8%; (second compound 10 µM, first compound 0.3 µM) 22%; (second compound 10 µM, first compound 0.949 µM) 28.9%; (second compound 10 µM, first compound 3 µM) 25.1%.

With `Cn1ncnc1C1c2n[nH]c(=O)c3cc(F)cc(c23)NC1c1ccc(F)cc1` (centres undefined) + CC(CO)NC(=O)c1cc(-c2ccc(Cl)cc2)nn(-c2cnn(C)c2)c1=O, the concentration for half-maximal inhibition (IC50) reads like this: under setting [1], greater than 100 nM; under setting [2], greater than 100 nM; under setting [3], greater than 100 nM; under setting [4], greater than 100 nM; under setting [5], greater than 100 nM. Besides, the viability, T/C under setting [6] was 97.1%; the viability, T/C under setting [7] was 102%; the viability, T/C under setting [8] was 101%; the viability, T/C under setting [9] is 106%; the viability, T/C under setting [10] is 86.7%; the viability, T/C under setting [11] was 104%. Also, the viability, T/C was 90.6% under setting [12]; 104% under setting [13]; 88.6% under setting [14]; 92.6% under setting [15]; 108% under setting [16]; 87.5% under setting [17]. The viability, T/C reads like this: under setting [18], 93.6%; under setting [19], 103%; under setting [20], 92.2%; under setting [21], 109%; under setting [22], 77.6%; under setting [23], 101%. In addition, the viability, T/C by setting is: under setting [24], 97%; under setting [25], 103%; under setting [26], 87.9%; under setting [27], 98.9%; under setting [28], 91.2%; under setting [29], 87.6%. Also, the viability, T/C was 83.2% under setting [30]; 80.8% under setting [31]; 90.2% under setting [32]; 83% under setting [33]; 87% under setting [34]; 78.7% under setting [35].

For the molecule `CC1COCCN1c1cc(-c2ccnn2C)c2ccnc(-c3ccn[nH]3)c2n1` (centres undefined), the viability, T/C was 94.6% and 92.4% and 98.3% (compound 0.00316 µM); 88.1% and 91.6% and 75% (compound 0.01 µM); 91.3% and 96.4% and 105% (compound 0.0316 µM); 89.3% and 82.8% and 95.2% (compound 0.1 µM); 75.3% and 74.5% and 69.8% (compound 0.316 µM); 43% and 64% and 37.5% (compound 1 µM). Further, the IC50 (curve of compound) is 784 nM and > 1000 nM and 642 nM.

Regarding `CC(C)CC(NC(=O)C(Cc1ccccc1)NC(=O)c1cnccn1)B(O)O` (centres undefined), the viability, T/C (compound 0.000949 µM) is 104% and 97.6% and 89.6%; the viability, T/C (compound 0.003 µM) is 113% and 111% and 104%; the viability, T/C (compound 0.00949 µM) is 87.6% and 93.6% and 59.1%; the viability, T/C (compound 0.03 µM) is 3.07% and 10.3% and 0.16%; the viability, T/C (compound 0.0949 µM) is 0.13% and 0.15% and 0.11%; the viability, T/C (compound 0.3 µM) was 0.19% and 0.2% and 0.18%. Moreover, the IC50 (curve of compound) is 15.8 nM and 17.3 nM and 11.3 nM.

Take `CC[C@@]1(O)C(=O)OCc2c1cc1n(c2=O)Cc2cc3c(CN(C)C)c(O)ccc3nc2-1` + CC(CO)NC(=O)c1cc(-c2ccc(Cl)cc2)nn(-c2cnn(C)c2)c1=O: the IC50 is greater than 100 nM under setting [1]; greater than 100 nM under setting [2]; greater than 100 nM under setting [3]; greater than 100 nM under setting [4]; greater than 100 nM under setting [5]. The viability, T/C was 99.5% under setting [6]; 92.5% under setting [7]; 95.3% under setting [8]; 87.2% under setting [9]; 84.1% under setting [10]; 57.7% under setting [11]. Further, the viability, T/C was 87.4% under setting [12]; 94.6% under setting [13]; 89% under setting [14]; 99.5% under setting [15]; 89.6% under setting [16]; 68.9% under setting [17]. The viability, T/C was 93% under setting [18]; 90% under setting [19]; 89.3% under setting [20]; 88.8% under setting [21]; 81.9% under setting [22]; 65.3% under setting [23]. The viability, T/C is, setting by setting: under setting [24], 81.3%; under setting [25], 82.3%; under setting [26], 84.6%; under setting [27], 99.6%; under setting [28], 88%; under setting [29], 75%. Further, the viability, T/C is 81.5% under setting [30]; 80.1% under setting [31]; 81.9% under setting [32]; 68.6% under setting [33]; 54.9% under setting [34]; 56.1% under setting [35].
